{"source": "patent US20250353821A1", "about": "“BENZENE SULFONAMIDE THIAZOLE COMPOUNDS AND THEIR USE FOR THE TREATMENT OF CANCERS” (INSERM (INSTITUT NATIONAL DE LA SANTÉ ET DE LA RECHERCHE …, priority 2021, published 2025)", "key": {"A375 melanoma cells [1]": {"test_system": "A375 melanoma cells", "assay": "Cell viability by cell counting, trypan blue exclusion method", "format": "cell-based", "settings": "Homo sapiens, A-375, 48 h, percentage of cells alive relative to negative control DMSO (100%)"}, "Aqueous solubility": {"assay": "Aqueous solubility", "format": "physicochemical", "settings": "aqueous medium (not further specified), read-out: Solublity"}, "A375 melanoma cells [2]": {"test_system": "A375 melanoma cells", "assay": "IC50 determination in A375 cells, blue trypan exclusion", "format": "cell-based, human", "settings": "Homo sapiens, A-375; A375, serum free, 24 h"}}, "data": [{"compound": "COc1ccc(-c2csc(NC(C)=O)n2)cc1NS(=O)(=O)c1cccc2c(N(C)C)cccc12", "note": "[PB600, N-(4-(3-((5-(dimethylamino)naphthalene)-1-sulfonamido)-4-methoxyphenyl)thiazol-2-yl)acetamide]", "values": [{"measurement": "viability at 10 µM", "setting": "A375 melanoma cells [1]", "result": "48.8 ± 4.3", "unit": "%"}]}, {"compound": "CN(C)c1cccc2c(S(=O)(=O)Nc3cc(-c4csc(NC(=O)CN5CCN(CCO)CC5)n4)ccc3F)cccc12", "note": "[PB601, N-(4-(3-((5-(dimethylamino)naphthalene)-1-sulfonamido)-4-fluorophenyl)thiazol-2-yl)-2-(4-(2-hydroxyethyl)piperazin-1-yl)acetamide]", "values": [{"measurement": "viability at 1 µM", "setting": "A375 melanoma cells [1]", "result": "47.2 ± 6.7", "unit": "%"}, {"measurement": "viability at 5 µM", "setting": "A375 melanoma cells [1]", "result": "22.5 ± 5.3", "unit": "%"}, {"measurement": "viability at 10 µM", "setting": "A375 melanoma cells [1]", "result": "10.2 ± 2.7", "unit": "%"}, {"measurement": "solubility", "setting": "Aqueous solubility", "result": "5.2 ± 1.9", "unit": "µM"}]}, {"compound": "COc1ccc(-c2csc(NC(=O)CN3CCN(CCO)CC3)n2)cc1NS(=O)(=O)c1cccc2c(N(C)C)cccc12", "note": "[PB602, N-(4-(3-((5-(dimethylamino)naphthalene)-1-sulfonamido)-4-methoxyphenyl)thiazol-2-yl)-2-(4-(2-hydroxyethyl)piperazin-1-yl)acetamide]", "values": [{"measurement": "viability at 1 µM", "setting": "A375 melanoma cells [1]", "result": "47.6 ± 2.4", "unit": "%"}, {"measurement": "viability at 5 µM", "setting": "A375 melanoma cells [1]", "result": "1.7 ± 0.9", "unit": "%"}, {"measurement": "viability at 10 µM", "setting": "A375 melanoma cells [1]", "result": "1 ± 1", "unit": "%"}, {"measurement": "solubility", "setting": "Aqueous solubility", "result": "3.4 ± 0.7", "unit": "µM"}]}, {"compound": "COCCOc1ccc(-c2csc(NC(C)=O)n2)cc1NS(=O)(=O)c1cccc2c(N(C)C)cccc12", "note": "[PB603, N-(4-(3-((5-(dimethylamino)naphthalene)-1-sulfonamido)-4-(2-methoxyethoxy)phenyl)thiazol-2-yl)acetamide]", "values": [{"measurement": "viability at 10 µM", "setting": "A375 melanoma cells [1]", "result": "43.1 ± 8.7", "unit": "%"}]}, {"compound": "COCCOc1ccc(-c2csc(NC(=O)CN3CCN(CCO)CC3)n2)cc1NS(=O)(=O)c1cccc2c(N(C)C)cccc12", "note": "[PB604, N-(4-(3-((5-(dimethylamino)naphthalene)-1-sulfonamido)-4-(2-methoxyethoxy)phenyl)thiazol-2-yl)-2-(4-(2-hydroxyethyl)piperazin-1-yl)acetamide]", "values": [{"measurement": "viability at 1 µM", "setting": "A375 melanoma cells [1]", "result": "57.7 ± 16.5", "unit": "%"}, {"measurement": "viability at 5 µM", "setting": "A375 melanoma cells [1]", "result": "19 ± 8.6", "unit": "%"}, {"measurement": "viability at 10 µM", "setting": "A375 melanoma cells [1]", "result": "16.3 ± 9.8", "unit": "%"}, {"measurement": "solubility", "setting": "Aqueous solubility", "result": "4.1 ± 0.4", "unit": "µM"}]}, {"compound": "CN(C)c1cccc2c(S(=O)(=O)Nc3cccc(-c4csc(NC(=O)COCC(O)CO)n4)c3)cccc12", "note": "(stereo not shown) [PB605, 2-(2,3-dihydroxypropoxy)-N-(4-(3-((5-(dimethylamino)naphthalene)-1-sulfonamido)phenyl)thiazol-2-yl)acetamide]", "values": [{"measurement": "viability at 1 µM", "setting": "A375 melanoma cells [1]", "result": "64.5 ± 4.3", "unit": "%"}, {"measurement": "viability at 5 µM", "setting": "A375 melanoma cells [1]", "result": "29.4 ± 9.8", "unit": "%"}, {"measurement": "viability at 10 µM", "setting": "A375 melanoma cells [1]", "result": "6.4 ± 0.6", "unit": "%"}, {"measurement": "solubility", "setting": "Aqueous solubility", "result": "2.8 ± 0.5", "unit": "µM"}]}, {"compound": "CN(C)c1cccc2c(S(=O)(=O)Nc3cccc(-c4csc(NC(=O)CCCCCNC(=O)OC(C)(C)C)n4)c3)cccc12", "note": "[PB624, Tert-butyl(6-((4-(3-((5-(dimethylamino)naphthalene)-1-sulfonamido)phenyl)thiazol-2-yl)amino)-6-oxohexyl)carbamate]", "values": [{"measurement": "viability at 5 µM", "setting": "A375 melanoma cells [1]", "result": "87.8 ± 16.2", "unit": "%"}, {"measurement": "viability at 10 µM", "setting": "A375 melanoma cells [1]", "result": "33.3 ± 5.5", "unit": "%"}]}, {"compound": "CCOC(=O)CCCC(=O)Nc1nc(-c2cccc(NS(=O)(=O)c3cccc4c(N(C)C)cccc34)c2)cs1", "note": "[PB625, Ethyl 5-((4-(3-((5-(dimethylamino)naphthalene)-1-sulfonamido)phenyl)thiazol-2-yl)amino)-5-oxopentanoate]", "values": [{"measurement": "viability at 5 µM", "setting": "A375 melanoma cells [1]", "result": "93 ± 3", "unit": "%"}, {"measurement": "viability at 10 µM", "setting": "A375 melanoma cells [1]", "result": "36.5 ± 7.5", "unit": "%"}]}, {"compound": "CN(C)c1cccc2c(S(=O)(=O)Nc3cccc(-c4csc(NC(=O)CCCNC(=O)OC(C)(C)C)n4)c3)cccc12", "note": "[PB631, Tert-butyl (4-((4-(3-((5-(dimethylamino)naphthalene)-1-sulfonamido)phenyl)thiazol-2-yl)amino)-4-oxobutyl)carbamate]", "values": [{"measurement": "viability at 5 µM", "setting": "A375 melanoma cells [1]", "result": "31.3 ± 4.9", "unit": "%"}, {"measurement": "viability at 10 µM", "setting": "A375 melanoma cells [1]", "result": "35.4 ± 14.2", "unit": "%"}]}, {"compound": "CC(=O)NCCCC(=O)Nc1nc(-c2cccc(NS(=O)(=O)c3cccc4c(N(C)C)cccc34)c2)cs1", "note": "[PB633]", "values": [{"measurement": "viability at 5 µM", "setting": "A375 melanoma cells [1]", "result": "65.2 ± 9.9", "unit": "%"}, {"measurement": "viability at 10 µM", "setting": "A375 melanoma cells [1]", "result": "43.8 ± 12.7", "unit": "%"}]}, {"compound": "Cc1nc(-c2cccc(NS(=O)(=O)c3cccc4c(N(C)C)cccc34)c2)cs1", "note": "[PB635, 5-(dimethylamino)-N-(3-(2-methylthiazol-4-yl)phenyl)naphthalene-1-sulfonamide]", "values": [{"measurement": "viability at 5 µM", "setting": "A375 melanoma cells [1]", "result": "47 ± 13.5", "unit": "%"}, {"measurement": "viability at 10 µM", "setting": "A375 melanoma cells [1]", "result": "46.9 ± 4.4", "unit": "%"}]}, {"compound": "CN1CCN(CC(=O)Nc2nc(-c3cccc(NS(=O)(=O)c4cccc5c(N(C)C)cccc45)c3)cs2)CC1", "note": "[PB638, N-(4-(3-((5-(dimethylamino)naphthalene)-1-sulfonamido)phenyl)thiazol-2-yl)-2-(4-methylpiperazin-1-yl)acetamide]", "values": [{"measurement": "viability at 1 µM", "setting": "A375 melanoma cells [1]", "result": "37.5 ± 5.9", "unit": "%"}, {"measurement": "viability at 5 µM", "setting": "A375 melanoma cells [1]", "result": "0.9 ± 1", "unit": "%"}, {"measurement": "viability at 10 µM", "setting": "A375 melanoma cells [1]", "result": 0, "unit": "%"}, {"measurement": "solubility", "setting": "Aqueous solubility", "result": "4 ± 2", "unit": "µM"}]}, {"compound": "CN(C)c1cccc2c(S(=O)(=O)Nc3cccc(-c4csc(NC(=O)CN5CCOCC5)n4)c3)cccc12", "note": "[PB639, N-(4-(3-((5-(dimethylamino)naphthalene)-1-sulfonamido)phenyl)thiazol-2-yl)-2-morpholinoacetamide]", "values": [{"measurement": "viability at 1 µM", "setting": "A375 melanoma cells [1]", "result": "100 ± 23.6", "unit": "%"}, {"measurement": "viability at 5 µM", "setting": "A375 melanoma cells [1]", "result": "63.5 ± 16", "unit": "%"}, {"measurement": "viability at 10 µM", "setting": "A375 melanoma cells [1]", "result": 24, "unit": "%"}]}, {"compound": "CN(C)c1cccc2c(S(=O)(=O)Nc3cccc(-c4csc(NC(=O)CN5CCC(C(N)=O)CC5)n4)c3)cccc12", "note": "[PB641, 1-(2-((4-(3-((5-(dimethylamino)naphthalene)-1-sulfonamido)phenyl)thiazol-2-yl)amino)-2-oxoethyl)piperidine-4-carboxamide]", "values": [{"measurement": "viability at 1 µM", "setting": "A375 melanoma cells [1]", "result": "104 ± 5.9", "unit": "%"}, {"measurement": "viability at 5 µM", "setting": "A375 melanoma cells [1]", "result": "105 ± 18.9", "unit": "%"}, {"measurement": "viability at 10 µM", "setting": "A375 melanoma cells [1]", "result": 40, "unit": "%"}]}, {"compound": "CN(C)c1cccc2c(S(=O)(=O)Nc3cccc(-c4csc(NC(=O)CNCCCN5CCOCC5)n4)c3)cccc12", "note": "[PB644, N-(4-(3-((5-(dimethylamino)naphthalene)-1-sulfonamido)phenyl)thiazol-2-yl)-2-((3-morpholinopropyl)amino)acetamide]", "values": [{"measurement": "viability at 1 µM", "setting": "A375 melanoma cells [1]", "result": "83.3 ± 23.6", "unit": "%"}, {"measurement": "viability at 5 µM", "setting": "A375 melanoma cells [1]", "result": "11.7 ± 1.2", "unit": "%"}, {"measurement": "viability at 10 µM", "setting": "A375 melanoma cells [1]", "result": 8, "unit": "%"}]}, {"compound": "CCOP(=O)(NCC(=O)Nc1nc(-c2cccc(NS(=O)(=O)c3cccc4c(N(C)C)cccc34)c2)cs1)OCC", "note": "[PB649, Diethyl-(2-((4-(3-((5-(dimethylamino)naphthalene)-1-sulfonamido)phenyl)thiazol-2-yl)amino)-2-oxoethyl)phosphoramidate]", "values": [{"measurement": "viability at 5 µM", "setting": "A375 melanoma cells [1]", "result": "77.7 ± 19.8", "unit": "%"}, {"measurement": "viability at 10 µM", "setting": "A375 melanoma cells [1]", "result": "26.4 ± 4.5", "unit": "%"}]}, {"compound": "CC(=O)Nc1nc(-c2ccc(F)c(NS(=O)(=O)c3cccc4c(N(C)C)cccc34)c2)cs1", "note": "[PB651, N-(4-(3-((5-(dimethylamino)naphthalene)-1-sulfonamido)-4-fluorophenyl)thiazol-2-yl)acetamide]", "values": [{"measurement": "viability at 5 µM", "setting": "A375 melanoma cells [1]", "result": "89.4 ± 5.6", "unit": "%"}, {"measurement": "viability at 10 µM", "setting": "A375 melanoma cells [1]", "result": "25 ± 8.1", "unit": "%"}]}, {"compound": "CN1CCN(CCCCCC(=O)Nc2nc(-c3cccc(NS(=O)(=O)c4cccc5c(N(C)C)cccc45)c3)cs2)CC1", "note": "[PB697, N-(4-(3-((5-(dimethylamino)naphthalene)-1-sulfonamido)phenyl)thiazol-2-yl)-6-(4-methylpiperazin-1-yl)hexanamide]", "values": [{"measurement": "IC50", "setting": "A375 melanoma cells [2]", "result": 2, "unit": "µM"}]}, {"compound": "CN(C)c1cccc2c(S(=O)(=O)Nc3cccc(-c4csc(NC(=O)CCCCCN5CCN(CCO)CC5)n4)c3)cccc12", "note": "[PB698, N-(4-(3-((5-(dimethylamino)naphthalene)-1-sulfonamido)phenyl)thiazol-2-yl)-6-(4-(2-hydroxyethyl)piperazin-1-yl)hexanamide]", "values": [{"measurement": "IC50", "setting": "A375 melanoma cells [2]", "result": 1.75, "unit": "µM"}]}, {"compound": "CCCCCc1ccc(S(=O)(=O)Nc2cccc(-c3csc(N4CCN(C)CC4)n3)c2)cc1", "note": "[PB707, N-(3-(2-(4-methylpiperazin-1-yl)thiazol-4-yl)phenyl)-4-pentylbenzenesulfonamide]", "values": [{"measurement": "IC50", "setting": "A375 melanoma cells [2]", "result": 2.5, "unit": "µM"}]}, {"compound": "CCCCCc1ccc(S(=O)(=O)Nc2cccc(-c3csc(N4CCN(CCO)CC4)n3)c2)cc1", "note": "[PB708, N-(3-(2-(4-(2-hydroxyethyl)piperazin-1-yl)thiazol-4-yl)phenyl)-4-pentylbenzenesulfonamide]", "values": [{"measurement": "IC50", "setting": "A375 melanoma cells [2]", "result": 2.5, "unit": "µM"}]}]}
